In ChEMBL document CHEMBL1201861, “Genomics of Drug Sensitity in Cancer screening data, Wellcome Trust Sanger Institute”:

Tests used:
EB-3 = assay: cells; format: functional, cell-based; conditions: Homo sapiens;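 further: human EB-3 cells, growth inhibition read out via a cell viability assay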
Description: SANGER: Inhibition of human EB-3 cell growth in a cell viability assay.

MDA-MB-134-VI = assay: cells; format: functional, cell-based; conditions: Homo sapiens
Description: SANGER: Inhibition of human MDA-MB-134-VI cell growth in a cell viability assay.

MC-CAR = assay: cells; format: functional, cell-based; conditions: Homo sapiens;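 further: growth inhibition of the human MC-CAR cell line, read out by a cell viability assay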
Description: SANGER: Inhibition of human MC-CAR cell growth in a cell viability assay.

COR-L279 = assay: SANGER: Inhibition of human COR-L279 cell growth in a cell viability assay.; format: functional, cell-based
SR = assay: cells; format: functional, cell-based; conditions: Homo sapiens
Description: SANGER: Inhibition of human SR cell growth in a cell viability assay.

LOUCY = assay: cells; format: functional, cell-based; conditions: Homo sapiens;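 further: growth inhibition of human LOUCY cells, read out with a cell viability assay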
Description: SANGER: Inhibition of human LOUCY cell growth in a cell viability assay.

NCI-H2171 = assay: cells; format: functional, cell-based; conditions: Homo sapiens;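 further: growth inhibition of human NCI-H2171 cells, read out by a cell viability assay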
Description: SANGER: Inhibition of human NCI-H2171 cell growth in a cell viability assay.

TUR = assay: cells; format: functional, cell-based; conditions: Homo sapiens;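 further: growth inhibition of human TUR cells, read out with a cell viability assay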
Description: SANGER: Inhibition of human TUR cell growth in a cell viability assay.

CAL-148 = assay: cells; format: functional, cell-based; conditions: Homo sapiens
Description: SANGER: Inhibition of human CAL-148 cell growth in a cell viability assay.

SIG-M5 = assay: cells; format: functional, cell-based; conditions: Homo sapiens;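 further: cell viability assay read-out, measuring how strongly growth of cultured human SIG-M5 cells is inhibited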
Description: SANGER: Inhibition of human SIG-M5 cell growth in a cell viability assay.

SNU-16 = assay: cells; format: functional, cell-based; conditions: Homo sapiens;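 further: growth inhibition of human SNU-16 cells, determined with a cell viability readout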
Description: SANGER: Inhibition of human NCI-SNU-16 cell growth in a cell viability assay.

SKM-1 = assay: SANGER: Inhibition of human SKM-1 cell growth in a cell viability assay.; format: functional, cell-based
NCI-H2107 = assay: SANGER: Inhibition of human NCI-H2107 cell growth in a cell viability assay.; format: functional, cell-based
NCI-H64 = assay: cells; format: functional, cell-based; conditions: Homo sapiens;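 further: growth inhibition of NCI-H64 cells, read out with a cell viability assay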
Description: SANGER: Inhibition of human NCI-H64 cell growth in a cell viability assay.

SCC-3 = assay: cells; format: functional, cell-based; conditions: Homo sapiens;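 further: cell viability assay measuring inhibition of SCC-3 cell growth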
Description: SANGER: Inhibition of human SCC-3 cell growth in a cell viability assay.

NCI-H889 = assay: cells; format: functional, cell-based; conditions: Homo sapiens;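 further: cell growth inhibition of the cell line, read out with a viability assay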
Description: SANGER: Inhibition of human NCI-H889 cell growth in a cell viability assay.

SIMA = assay: cells; format: functional, cell-based, Homo sapiens; conditions: Homo sapiens, SIMA;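 further: growth inhibition of SIMA cells, measured with a cell viability readout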
Description: SANGER: Inhibition of human SIMA cell growth in a cell viability assay.

CHP-126 = assay: cells; format: functional, cell-based; conditions: Homo sapiens
Description: SANGER: Inhibition of human CHP-126 cell growth in a cell viability assay.

TE-15 = assay: cells; format: functional, cell-based; conditions: Homo sapiens;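 further: cell viability readout of growth inhibition in TE-15 cells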
Description: SANGER: Inhibition of human TE-15 cell growth in a cell viability assay.

IST-SL2 = assay: cells; format: functional, cell-based; conditions: Homo sapiens;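 further: growth inhibition of human IST-SL2 cells, read out by a cell viability assay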
Description: SANGER: Inhibition of human IST-SL2 cell growth in a cell viability assay.

DG-75 = assay: cells; format: functional, cell-based; conditions: Homo sapiens;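 further: growth inhibition of DG-75 cells, read out with a cell viability assay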
Description: SANGER: Inhibition of human DG-75 cell growth in a cell viability assay.

NCI-H128 = assay: SANGER: Inhibition of human NCI-H128 cell growth in a cell viability assay.; format: functional, cell-based
NCI-H322M = assay: cells; format: functional, cell-based; conditions: Homo sapiens;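 further: cell viability assay measuring inhibition of growth of human NCI-H322M cells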
Description: SANGER: Inhibition of human NCI-H322M cell growth in a cell viability assay.

LB647-SCLC = assay: cells; format: functional, cell-based; conditions: Homo sapiens;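 further: cell growth inhibition, read out by a viability assay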
Description: SANGER: Inhibition of human LB647-SCLC cell growth in a cell viability assay.

BC1 cell line = assay: SANGER: Inhibition of human BC-1 cell growth in a cell viability assay.; format: functional, cell-based
ST486 = assay: SANGER: Inhibition of human ST486 cell growth in a cell viability assay.; format: functional, cell-based
LC4-1 = assay: cells; format: functional, cell-based; conditions: Homo sapiens;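 further: growth inhibition of LC4-1 cells, read out with a cell viability assay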
Description: SANGER: Inhibition of human LC4-1 cell growth in a cell viability assay.

BOKU = assay: cells; format: functional, cell-based; conditions: Homo sapiens;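 further: growth inhibition of the human BOKU cell line, read out by a cell viability assay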
Description: SANGER: Inhibition of human BOKU cell growth in a cell viability assay.

NCI-H2009 = assay: cells; format: functional, cell-based, Homo sapiens; conditions: Homo sapiens, NCI-H2009;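 further: cell viability assay measuring inhibition of NCI-H2009 cell growth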
Description: SANGER: Inhibition of human NCI-H2009 cell growth in a cell viability assay.

D-423MG = assay: cells; format: functional, cell-based; conditions: Homo sapiens
Description: SANGER: Inhibition of human D-423MG cell growth in a cell viability assay.

H9 = assay: cells; format: functional, cell-based; conditions: Homo sapiens
Description: SANGER: Inhibition of human H9 cell growth in a cell viability assay.

NBsusSR = assay: cells; format: functional, cell-based; conditions: Homo sapiens;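 further: growth inhibition of the human cell line, read out with a cell viability assay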
Description: SANGER: Inhibition of human NBsusSR cell growth in a cell viability assay.

ECC10 = assay: cells; format: functional, cell-based; conditions: Homo sapiens;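 further: growth inhibition of ECC10 cells, read out by a cell viability assay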
Description: SANGER: Inhibition of human ECC10 cell growth in a cell viability assay.

SJRH30 = assay: cells; format: functional, cell-based; conditions: Homo sapiens;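 further: growth inhibition of human SJRH30 cells, read out with a cell viability assay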
Description: SANGER: Inhibition of human SJRH30 cell growth in a cell viability assay.

NCI-H630 = assay: cells; format: functional, cell-based, Homo sapiens; conditions: Homo sapiens, NCI-H630;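 further: growth inhibition of NCI-H630 cells, read out with a cell viability assay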
Description: SANGER: Inhibition of human NCI-H630 cell growth in a cell viability assay.

BALL-1 = assay: cells; format: functional, cell-based; conditions: Homo sapiens;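 further: growth inhibition of BALL-1 cells, read out with a cell viability assay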
Description: SANGER: Inhibition of human BALL-1 cell growth in a cell viability assay.

CHP-134 = assay: SANGER: Inhibition of human CHP-134 cell growth in a cell viability assay.; format: functional, cell-based
LU-135 = assay: cells; format: functional, cell-based; conditions: Homo sapiens
Description: SANGER: Inhibition of human LU-135 cell growth in a cell viability assay.

H-EMC-SS = assay: cells; format: functional, cell-based; conditions: Homo sapiens
Description: SANGER: Inhibition of human H-EMC-SS cell growth in a cell viability assay.

SMILES | IC50 (EB-3) [nM] | IC50 (MDA-MB-134-VI) [nM] | IC50 (MC-CAR) [nM] | IC50 (COR-L279) [nM] | IC50 (SR) [nM] | IC50 (LOUCY) [nM] | IC50 (NCI-H2171) [nM] | IC50 (TUR) [nM] | IC50 (CAL-148) [nM] | IC50 (SIG-M5) [nM] | IC50 (SNU-16) [nM] | IC50 (SKM-1) [nM] | IC50 (NCI-H2107) [nM] | IC50 (NCI-H64) [nM] | IC50 (SCC-3) [nM] | IC50 (NCI-H889) [nM] | IC50 (SIMA) [nM] | IC50 (CHP-126) [nM] | IC50 (TE-15) [nM] | IC50 (IST-SL2) [nM] | further results
CC1=C2C[C@H]3[C@@H](CC=C4C[C@@H](O)CC[C@@]43C)[C@@H]2CC[C@]12O[C@@H]1C[C@H](C)CN[C@H]1[C@H]2C [CYCLOPAMINE] | > 16000 | > 16000 | > 16000 | > 16000 | > 16000 | > 16000 | > 16000 | > 16000 | > 16000 | > 16000 | > 16000 | > 16000 | > 16000 | > 16000 | > 16000 | > 16000 | > 16000 | > 16000 | > 16000 | > 16000 | IC50 (DG-75): > 16000 nM; IC50 (NCI-H128): > 16000 nM; IC50 (NCI-H322M): > 16000 nM; IC50 (LB647-SCLC): > 16000 nM; IC50 (BC1 cell line): > 16000 nM; IC50 (ST486): > 16000 nM; IC50 (LC4-1): > 16000 nM
CS(=O)(=O)CCNCc1ccc(-c2ccc3ncnc(Nc4ccc(OCc5cccc(F)c5)c(Cl)c4)c3c2)o1 [LAPATINIB] | > 2000 | > 2000 | > 2000 | > 2000 | > 2000 | > 2000 | > 2000 | > 2000 | > 2000 | > 2000 | > 2000 | > 2000 | > 2000 | > 2000 | > 2000 | > 2000 | > 2000 | > 2000 | > 2000 | > 2000 | IC50 (DG-75): > 2000 nM; IC50 (NCI-H128): > 2000 nM; IC50 (NCI-H322M): > 2000 nM; IC50 (LB647-SCLC): > 2000 nM; IC50 (BC1 cell line): > 2000 nM; IC50 (ST486): > 2000 nM; IC50 (LC4-1): > 2000 nM
CCc1nc(N)nc(N)c1-c1ccc(Cl)cc1 [PYRIMETHAMINE] | > 20000 | > 20000 | > 20000 | 6370 | 16500 | 10900 | > 20000 | > 20000 | > 20000 | 7980 | > 20000 | > 20000 | > 20000 | > 20000 | 1840 | > 20000 | > 20000 | > 20000 | > 20000 | 11400 | IC50 (DG-75): 14600 nM; IC50 (NCI-H128): > 20000 nM; IC50 (NCI-H322M): > 20000 nM; IC50 (LB647-SCLC): > 20000 nM; IC50 (BC1 cell line): 5100 nM; IC50 (ST486): 9310 nM; IC50 (LC4-1): > 20000 nM
O=C(/C=C/c1ccccc1)NC(NC(=S)Nc1cccc2cccnc12)C(Cl)(Cl)Cl (stereo not given) [SALUBRINAL] | 9630 | > 16000 | > 16000 | > 16000 | > 16000 | > 16000 | > 16000 | > 16000 | > 16000 | > 16000 | > 16000 | > 16000 | > 16000 | > 16000 | > 16000 | > 16000 | > 16000 | > 16000 | > 16000 | 11800 | IC50 (DG-75): > 16000 nM; IC50 (NCI-H128): > 16000 nM; IC50 (NCI-H322M): > 16000 nM; IC50 (LB647-SCLC): > 16000 nM; IC50 (BC1 cell line): 15200 nM; IC50 (ST486): 8540 nM; IC50 (LC4-1): > 16000 nM
CN1CCN(CCOc2cc(OC3CCOCC3)c3c(Nc4c(Cl)ccc5c4OCO5)ncnc3c2)CC1 [SARACATINIB] | > 2000 | > 2000 | > 2000 | > 2000 | > 2000 | > 2000 | > 2000 | > 2000 | > 2000 | > 2000 | > 2000 | > 2000 | > 2000 | > 2000 | > 2000 | > 2000 | > 2000 | > 2000 | 274 | > 2000 | IC50 (BOKU): > 2000 nM; IC50 (DG-75): > 2000 nM; IC50 (NCI-H128): > 2000 nM; IC50 (NCI-H322M): > 2000 nM; IC50 (LB647-SCLC): > 2000 nM; IC50 (BC1 cell line): > 2000 nM; IC50 (ST486): 1460 nM; IC50 (LC4-1): > 2000 nM
CNC(=O)c1cc(Oc2ccc(NC(=O)Nc3ccc(Cl)c(C(F)(F)F)c3)cc2)ccn1 [SORAFENIB] | > 4000 | > 4000 | > 4000 | > 4000 | > 4000 | > 4000 | 2400 | > 4000 | > 4000 | 2420 | > 4000 | > 4000 | > 4000 | > 4000 | > 4000 | > 4000 | > 4000 | > 4000 | > 4000 | > 4000 | IC50 (DG-75): > 4000 nM; IC50 (NCI-H128): > 4000 nM; IC50 (NCI-H322M): > 4000 nM; IC50 (LB647-SCLC): > 4000 nM; IC50 (BC1 cell line): 3740 nM; IC50 (ST486): 3840 nM; IC50 (LC4-1): > 4000 nM
C=CCNC1=C2C[C@@H](C)C[C@H](OC)[C@H](O)[C@@H](C)/C=C(\C)[C@H](OC(N)=O)[C@@H](OC)/C=C\C=C(/C)C(=O)NC(=CC1=O)C2=O [TANESPIMYCIN] |  |  |  |  |  |  |  |  |  |  |  |  |  |  |  |  |  |  |  |  | IC50 (NCI-H2009): 853 nM; IC50 (D-423MG): > 1000 nM; IC50 (H9): 43.7 nM; IC50 (NBsusSR): 373 nM; IC50 (ECC10): > 1000 nM; IC50 (SJRH30): > 1000 nM; IC50 (NCI-H630): > 1000 nM; IC50 (BALL-1): > 1000 nM; IC50 (CHP-134): > 1000 nM; IC50 (LU-135): > 1000 nM; IC50 (H-EMC-SS): > 1000 nM
CCC(=O)N1CCN(c2ccc(-n3c(=O)ccc4cnc5ccc(-c6cnc7ccccc7c6)cc5c43)cc2C(F)(F)F)CC1 [TORIN1] | 36.4 | 143 | 554 | 108 | 63.7 | 63.9 | > 1200 | > 1200 | 118 | 89 | 302 | > 1200 | 1170 | 303 | 129 | > 1200 | > 1200 | > 1200 | 44.3 | 53.6 | IC50 (BOKU): 372 nM; IC50 (DG-75): 262 nM; IC50 (NCI-H128): > 1200 nM; IC50 (NCI-H322M): > 1200 nM; IC50 (LB647-SCLC): 117 nM; IC50 (BC1 cell line): > 1200 nM; IC50 (ST486): 106 nM; IC50 (LC4-1): 87.4 nM
Cc1cc(Nc2cc(N3CCN(C)CC3)nc(Sc3ccc(NC(=O)C4CC4)cc3)n2)n[nH]1 [TOZASERTIB] | > 2000 | > 2000 | > 2000 | > 2000 | 246 | > 2000 | > 2000 | > 2000 | > 2000 | 167 | 636 | > 2000 | > 2000 | > 2000 | > 2000 | > 2000 | > 2000 | > 2000 | 851 | 720 | IC50 (BOKU): > 2000 nM; IC50 (DG-75): > 2000 nM; IC50 (NCI-H128): > 2000 nM; IC50 (NCI-H322M): > 2000 nM; IC50 (LB647-SCLC): 215 nM; IC50 (BC1 cell line): > 2000 nM; IC50 (ST486): 231 nM; IC50 (LC4-1): > 2000 nM
